Source: patent US8957096B2, “Herbicidally active oxime-ether-substituted benzoylamides” (Bayer Intellectual Property GmbH, priority 2011, dated 2015)

What was measured:
Format in all cases: in vivo
Abuthilon theophrasti [1] = experiment: Pre-emergence herbicidal action against harmful plants; conditions: 504 h, application rate 320 g/ha, assessed visually after 3 weeks vs untreated controls, read-out: herbicidal activity in percent (%)
Text: (§1) 1. Pre-Emergence Herbicidal Action Against Harmful Plants Seeds of monocotyledonous and dicotyledonous weed plants and crop plants are placed in wood-fiber pots in sandy loam and covered with soil. The compounds according to the invention, formulated in the form of wettable powders (WP) or as emulsion concentrates (EC), are then applied as aqueous suspension or emulsion at a water application rate of 600 to 800 l/ha (converted) with the addition of 0.2% of wetting agent to the surface of the covering soil. After the treatment, the pots are placed in a greenhouse and kept under good growth conditions for the test plants. The damage to the test plants is assessed visually after a test period of 3 weeks by comparison with untreated controls (herbicidal activity in percent (%): 100% activity=the plants have died, 0% activity=like control plants). Here, the compounds Nos. 1-002, 1-004, 1-007, 1-008, 1-043, 1-044, 1-046, 1-047, 1-060, 1-079, 1-080, 1-082, 1-083, 1-085, 1-095, 1-096, 1-098, 1-099, 1-059, 2-015, 3-015, 3-018, 3-020, 4-001, 4-118, 5-004, 5-017, 5-043, 5-056, 5-082, 5-095, 6-017, 7-017, 8-017 and 8-014, for example, each show, at an application rate of 320 g/ha, an activity of at least 80% against Abuthilon theophrasti and Amaranthus retroflexus. The compounds Nos. 1-001, 1-005, 1-014, 1-015, 1-017, 1-018, 1-020, 1-033, 1-040, 1-041, 1-053, 1-054, 1-056, 1-057, 1-092, 1-093, 3-014, 3-015, 8-014, 8-017 and 8-015 each show, at an application rate of 320 g/ha, an activity of at least 80% against Setaria viridis and Stellaria media. The compounds Nos. 3-017, 4-092 and 6-004 show, at an application rate of 320 g/ha, an activity of at least 80% against Amaranthus retroflexus and Veronica persica.

Amaranthus retroflexus [2] = experiment: as above; conditions: 504 h, application rate 320 g/ha, assessed visually after 3 weeks vs untreated controls, read-out: herbicidal activity in percent (%)
Text: as §1

Setaria viridis = experiment: as above; conditions: 504 h, application rate 320 g/ha, assessed visually after 3 weeks vs untreated controls, read-out: herbicidal activity in percent (%)
Text: as §1

Stellaria media [3] = experiment: as above; conditions: 504 h, application rate 320 g/ha, assessed visually after 3 weeks vs untreated controls, read-out: herbicidal activity in percent (%)
Text: as §1

Abuthilon theophrasti [4] = experiment: Post-emergence herbicidal action against harmful plants; conditions: 504 h, application rate 80 g/ha, assessed visually after about 3 weeks vs untreated controls, read-out: herbicidal action in percent (%)
Procedure: (§2) 2. Post-Emergence Herbicidal Action Against Harmful Plants Seeds of monocotyledonous and dicotyledonous weed and crop plants are placed in sandy loam in wood-fiber pots, covered with soil and cultivated in a greenhouse under good growth conditions. 2 to 3 weeks after sowing, the test plants are treated at the one-leaf stage. The inventive compounds formulated in the form of wettable powders (WP) or as emulsion concentrates (EC) are then sprayed onto the green parts of the plants as an aqueous suspension or emulsion at a water application rate of 600 to 800 l/ha (converted) with addition of 0.2% wetting agent. After the test plants have been left to stand in the greenhouse under optimal growth conditions for about 3 weeks, the action of the formulations is assessed visually in comparison to untreated controls (herbicidal action in percent (%): 100% activity=the plants have died, 0% activity=like control plants). Here, the compounds Nos. 1-001, 1-002, 1-004, 1-005, 1-007, 1-008, 1-014, 1-015, 1-017, 1-018, 1-020, 1-033, 1-040, 1-041, 1-043, 1-044, 1-046, 1-047, 1-053, 1-054, 1-056, 1-057, 1-059, 1-060, 1-079, 1-080, 1-082, 1-083, 1-086, 1-092, 1-093, 1-095, 1-096, 1-098, 1-099, 2-015, 3-014, 3-015, 3-017, 3-018, 3-020, 5-082, 5-095, 6-017, 7-017 and 8-014 each show, at an application rate of 80 g/ha, an activity of at least 80% against Abuthilon theophrasti, Amaranthus retroflexus and Stellaria media. The compounds Nos. 4-092, 4-093, 5-004, 5-017, 5-043 and 5-056 each show, at an application rate of 80 g/ha, an activity of at least 80% against Echinocloa crus galli, Pharbitis purpureum and Stellaria media.

Amaranthus retroflexus [5] = experiment: as above; conditions: 504 h, application rate 80 g/ha, assessed visually after about 3 weeks vs untreated controls, read-out: herbicidal action in percent (%)
Procedure: as §2

Stellaria media [6] = experiment: as above; conditions: 504 h, application rate 80 g/ha, assessed visually after about 3 weeks vs untreated controls, read-out: herbicidal action in percent (%)
Procedure: as §2

C=NOCc1c(S(C)(=O)=O)ccc(C(=O)Nc2nnc(C)o2)c1Cl [8-014]
≥ 80%: pest or weed control at 320 g/ha (Abuthilon theophrasti [1]) | pest or weed control at 320 g/ha (Amaranthus retroflexus [2]) | pest or weed control at 320 g/ha (Setaria viridis) | pest or weed control at 320 g/ha (Stellaria media [3]) | pest or weed control at 80 g/ha (Abuthilon theophrasti [4]) | pest or weed control at 80 g/ha (Amaranthus retroflexus [5]) | pest or weed control at 80 g/ha (Stellaria media [6])

CC(C)=NOCc1c(S(C)(=O)=O)ccc(C(=O)Nc2nnc(C)o2)c1Cl [8-017]
≥ 80%: pest or weed control at 320 g/ha (Abuthilon theophrasti [1]) | pest or weed control at 320 g/ha (Amaranthus retroflexus [2]) | pest or weed control at 320 g/ha (Setaria viridis) | pest or weed control at 320 g/ha (Stellaria media [3])

C#CCON=Cc1c(S(C)(=O)=O)ccc(C(=O)Nc2nnnn2CC)c1Cl [1-057, 2-chloro-N-(1-ethyl-1H-tetrazol-5-yl)-4-(methylsulfonyl)-3-{[(prop-2-yn-1-yloxy)imino]methyl}benzamide]
≥ 80%: pest or weed control at 320 g/ha (Setaria viridis) | pest or weed control at 320 g/ha (Stellaria media [3]) | pest or weed control at 80 g/ha (Abuthilon theophrasti [4]) | pest or weed control at 80 g/ha (Amaranthus retroflexus [5]) | pest or weed control at 80 g/ha (Stellaria media [6])

CCO/N=C/c1c(S(C)(=O)=O)ccc(C(=O)Nc2nnnn2C)c1Cl [1-015]
≥ 80%: pest or weed control at 320 g/ha (Setaria viridis) | pest or weed control at 320 g/ha (Stellaria media [3]) | pest or weed control at 80 g/ha (Abuthilon theophrasti [4]) | pest or weed control at 80 g/ha (Amaranthus retroflexus [5]) | pest or weed control at 80 g/ha (Stellaria media [6])
